Data: patent US20190169134A1, “NOVEL CLASS OF QUINOLONE HETEROCYCLIC AROMATIC MOLECULES FOR CANCER TREATMENT” (RenoTarget Therapeutics, Inc., priority 2016, published 2019)

Legend:
Assay in all cases: KinaseSeeker competition binding assay
[1] = biological target: T1, HER2 (Homo sapiens, UniProt P04626)
T1 construct: made in house; host or cells: cell-free, rabbit reticulocyte lysate
Procedure: (§1) Compound Reno647 was profiled against the following panel of kinases at 2 μM using the KinaseSeeker™ assay: ABL1, AKT1, AKT2, AKT3, ALK, AURKA, AXL, BRAF, BTK, CDK2, CDK5, CDK7, CDK8, CSF1R, DDR1, EGFR del L747-P753 InsS, EGFR (L861Q), EGFR (G719S), EGFR, EGFR (L858R), EPHA2, EPHB2, FGFR3, FLT1/VEGFR1, FLT2/FGFR1, FLT3, FLT4/VEGFR3, GSK-3a, HER2, IGF1R, INSR, KIT, LIMK1, MET, MLK2/MAP3K10, RPS6KA5/MSK1, MUSK, p38a/MAPK12, PDGFRA, PDGFRB, PDK1, RET, RIPK2, RPS6KA1/RSK1, SRC, TEC, TESK1, TRKB, VEGFR2, and YES 1.
(§2) KinaseSeeker is a homogeneous competition binding assay where the displacement of an active site dependent probe by an inhibitor is measured by a change in luminescence signal (see FIG. 7). Luminescence readout translates into a highly sensitive and robust assay with low background and minimal interference from test compounds.
(§3) (Jester, Cox et al. 2010; Jester, Gaj et al. 2012): 10 mM stock of compound Reno647 was diluted in DMSO to a concentration of 50 μM. Prior to initiating a profiling campaign, the compound was evaluated for false positive against split-luciferase. The compound was then screened in duplicate against each of the kinases. For kinase assays, each Cfluc-Kinase was translated along with Fos-Nfluc using a cell-free system (rabbit reticulocyte lysate) at 30° C. for 90 min. A 24 μL aliquot of this lysate containing either 1 μL of DMSO (for no-inhibitor control) or compound solution in DMSO (2 LM final concentration) was incubated for 30 minutes at room temperature followed by 1 hour in the presence of a kinase specific probe. A 80 μL of luciferin assay reagent was added to each solution and luminescence was immediately measured on a luminometer.
(§4) The % Inhibition and % Activity Remaining were calculated using the following equations:
(§5) % inhibition=(ALUcontrol−ALUsample)×100
(§6) % activity=100−% inhibition.

[2] = tested on: p38a; settings: 2 μM
Procedure: as §1, §2, §3, §4, §5, §6

[3] = biological target: T2, KIT-KD (Homo sapiens, UniProt P10721)
T2 construct: KIT-KD; made in house; host or cells: cell-free, rabbit reticulocyte lysate
Procedure: as §1, §2, §3, §4, §5, §6

[4] = biological target: T3, GSK3A (Homo sapiens, UniProt P49840)
T3 construct: made in house; host or cells: cell-free, rabbit reticulocyte lysate
Procedure: as §1, §2, §3, §4, §5, §6

[5] = biological target: T4, CDK7 (Homo sapiens, UniProt P50613)
T4 construct: made in house; host or cells: cell-free system (rabbit reticulocyte lysate)
Procedure: as §1, §2, §3, §4, §5, §6

[6] = biological target: T5, IGF1R (Homo sapiens, UniProt P08069)
T5 construct: made in house; host or cells: cell-free, rabbit reticulocyte lysate
Procedure: as §1, §2, §3, §4, §5, §6

[7] = biological target: T6, CDK5 (Homo sapiens, UniProt Q00535)
T6 construct: made in house; host or cells: cell-free system (rabbit reticulocyte lysate)
Procedure: as §1, §2, §3, §4, §5, §6

[8] = biological target: T7, RSK1 (Homo sapiens, UniProt Q15418)
T7 construct: made in house; host or cells: cell-free, rabbit reticulocyte lysate
Procedure: as §1, §2, §3, §4, §5, §6

[9] = biological target: T8, MLK2 (Homo sapiens, UniProt Q02779)
T8 construct: made in house; host or cells: cell-free, rabbit reticulocyte lysate
Procedure: as §1, §2, §3, §4, §5, §6

[10] = biological target: T9, BRAF (Homo sapiens, UniProt P15056)
T9 construct: made in house; host or cells: cell-free system (rabbit reticulocyte lysate)
Procedure: as §1, §2, §3, §4, §5, §6

[11] = biological target: T10, AKT2 (Homo sapiens, UniProt P31751)
T10 construct: made in house; host or cells: cell-free system (rabbit reticulocyte lysate)
Procedure: as §1, §2, §3, §4, §5, §6

[12] = biological target: T11, VEGFR2 (Homo sapiens, UniProt P35968)
T11 construct: made in house; host or cells: cell-free, rabbit reticulocyte lysate
Procedure: as §1, §2, §3, §4, §5, §6

[13] = biological target: T12, FGFR3 (Homo sapiens, UniProt P22607)
T12 construct: made in house; host or cells: cell-free system (rabbit reticulocyte lysate)
Procedure: as §1, §2, §3, §4, §5, §6

[14] = biological target: T13, FLT1 (Homo sapiens, UniProt P17948)
T13 construct: made in house; host or cells: cell-free system (rabbit reticulocyte lysate)
Procedure: as §1, §2, §3, §4, §5, §6

[15] = biological target: T14, EPHA2 (Homo sapiens, UniProt P29317)
T14 construct: made in house; host or cells: cell-free system (rabbit reticulocyte lysate)
Procedure: as §1, §2, §3, §4, §5, §6

[16] = biological target: T15, TRKB (Homo sapiens, UniProt Q16620)
T15 construct: made in house; host or cells: cell-free, rabbit reticulocyte lysate
Procedure: as §1, §2, §3, §4, §5, §6

[17] = biological target: T16, CDK8 (Homo sapiens, UniProt P49336)
T16 construct: made in house; host or cells: cell-free system (rabbit reticulocyte lysate)
Procedure: as §1, §2, §3, §4, §5, §6

[18] = biological target: T17, AXL (Homo sapiens, UniProt P30530)
T17 construct: made in house; host or cells: cell-free system (rabbit reticulocyte lysate)
Procedure: as §1, §2, §3, §4, §5, §6

[19] = biological target: T18, PDGFRB (Homo sapiens, UniProt P09619)
T18 construct: made in house; host or cells: cell-free, rabbit reticulocyte lysate
Procedure: as §1, §2, §3, §4, §5, §6

[20] = biological target: T19, PDPK1 (Homo sapiens, UniProt O15530)
T19 construct: made in house; host or cells: cell-free, rabbit reticulocyte lysate
Procedure: as §1, §2, §3, §4, §5, §6

[21] = biological target: T20, EPHB2 (Homo sapiens, UniProt P29323)
T20 construct: made in house; host or cells: cell-free system (rabbit reticulocyte lysate)
Procedure: as §1, §2, §3, §4, §5, §6

[22] = biological target: T21, FLT4 (Homo sapiens, UniProt P35916)
T21 construct: made in house; host or cells: cell-free, rabbit reticulocyte lysate
Procedure: as §1, §2, §3, §4, §5, §6

[23] = biological target: T22, TEC (Homo sapiens, UniProt P42680)
T22 construct: made in house; host or cells: cell-free, rabbit reticulocyte lysate
Procedure: as §1, §2, §3, §4, §5, §6

[24] = biological target: T23, DDR1 (Homo sapiens, UniProt Q08345)
T23 construct: made in house; host or cells: cell-free system (rabbit reticulocyte lysate)
Procedure: as §1, §2, §3, §4, §5, §6

[25] = biological target: T24, ABL1 (Homo sapiens, UniProt P00519)
T24 construct: made in house; host or cells: cell-free system (rabbit reticulocyte lysate)
Procedure: as §1, §2, §3, §4, §5, §6

[26] = biological target: T25, RIPK2 (Homo sapiens, UniProt O43353)
T25 construct: made in house; host or cells: cell-free, rabbit reticulocyte lysate
Procedure: as §1, §2, §3, §4, §5, §6

[27] = biological target: T26, PDGFRA (Homo sapiens, UniProt P16234)
T26 construct: made in house; host or cells: cell-free, rabbit reticulocyte lysate
Procedure: as §1, §2, §3, §4, §5, §6

[28] = biological target: T27, INSR (Homo sapiens, UniProt P06213)
T27 construct: made in house; host or cells: cell-free, rabbit reticulocyte lysate
Procedure: as §1, §2, §3, §4, §5, §6

[29] = biological target: T28, TESK1 (Homo sapiens, UniProt Q15569)
T28 construct: made in house; host or cells: cell-free, rabbit reticulocyte lysate
Procedure: as §1, §2, §3, §4, §5, §6

[30] = biological target: T29, ALK (Homo sapiens, UniProt Q9UM73)
T29 construct: made in house; host or cells: cell-free system (rabbit reticulocyte lysate)
Procedure: as §1, §2, §3, §4, §5, §6

T20 sequence (P29323 19-1055): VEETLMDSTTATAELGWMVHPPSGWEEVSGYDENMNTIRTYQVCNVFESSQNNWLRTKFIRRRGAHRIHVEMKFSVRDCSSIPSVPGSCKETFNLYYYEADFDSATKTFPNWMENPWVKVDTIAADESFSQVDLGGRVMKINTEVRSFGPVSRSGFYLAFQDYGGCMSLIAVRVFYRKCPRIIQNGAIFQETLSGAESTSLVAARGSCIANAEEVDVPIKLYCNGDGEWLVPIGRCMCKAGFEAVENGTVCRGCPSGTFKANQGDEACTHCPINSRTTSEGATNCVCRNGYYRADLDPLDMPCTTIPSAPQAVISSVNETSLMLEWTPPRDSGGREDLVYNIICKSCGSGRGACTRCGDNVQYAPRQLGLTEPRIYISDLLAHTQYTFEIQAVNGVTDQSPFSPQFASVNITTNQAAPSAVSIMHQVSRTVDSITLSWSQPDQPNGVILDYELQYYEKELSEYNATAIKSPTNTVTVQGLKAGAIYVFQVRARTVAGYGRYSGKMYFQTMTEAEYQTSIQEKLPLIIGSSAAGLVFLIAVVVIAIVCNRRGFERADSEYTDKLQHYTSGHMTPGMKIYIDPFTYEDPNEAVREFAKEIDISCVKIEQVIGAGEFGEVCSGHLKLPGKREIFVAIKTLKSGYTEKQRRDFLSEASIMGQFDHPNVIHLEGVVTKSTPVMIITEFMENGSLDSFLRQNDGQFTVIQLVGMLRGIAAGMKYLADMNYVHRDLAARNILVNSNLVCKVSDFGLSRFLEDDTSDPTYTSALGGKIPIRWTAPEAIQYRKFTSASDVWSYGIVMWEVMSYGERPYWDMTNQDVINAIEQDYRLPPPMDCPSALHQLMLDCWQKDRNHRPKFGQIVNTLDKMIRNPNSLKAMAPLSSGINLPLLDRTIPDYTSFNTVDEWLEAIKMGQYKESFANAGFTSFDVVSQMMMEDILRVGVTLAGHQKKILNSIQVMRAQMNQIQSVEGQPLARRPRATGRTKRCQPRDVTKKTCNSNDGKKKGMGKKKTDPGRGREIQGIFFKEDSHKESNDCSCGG
T25 sequence (O43353 whole entry): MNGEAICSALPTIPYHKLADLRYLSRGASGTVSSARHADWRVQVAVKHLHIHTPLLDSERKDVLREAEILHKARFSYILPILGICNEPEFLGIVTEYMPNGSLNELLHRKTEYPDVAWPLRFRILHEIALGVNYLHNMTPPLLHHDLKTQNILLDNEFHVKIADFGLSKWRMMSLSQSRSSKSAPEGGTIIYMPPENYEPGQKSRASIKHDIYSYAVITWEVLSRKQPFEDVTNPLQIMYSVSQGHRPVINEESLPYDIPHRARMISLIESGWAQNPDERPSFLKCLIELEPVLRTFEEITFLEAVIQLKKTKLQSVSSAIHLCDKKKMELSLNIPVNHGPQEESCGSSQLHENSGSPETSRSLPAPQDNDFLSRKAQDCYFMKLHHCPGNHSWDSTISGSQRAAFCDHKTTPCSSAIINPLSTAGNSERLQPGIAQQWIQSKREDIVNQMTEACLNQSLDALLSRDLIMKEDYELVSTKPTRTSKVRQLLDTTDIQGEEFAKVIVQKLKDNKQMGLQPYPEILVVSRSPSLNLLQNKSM
T4 sequence (P50613 whole entry): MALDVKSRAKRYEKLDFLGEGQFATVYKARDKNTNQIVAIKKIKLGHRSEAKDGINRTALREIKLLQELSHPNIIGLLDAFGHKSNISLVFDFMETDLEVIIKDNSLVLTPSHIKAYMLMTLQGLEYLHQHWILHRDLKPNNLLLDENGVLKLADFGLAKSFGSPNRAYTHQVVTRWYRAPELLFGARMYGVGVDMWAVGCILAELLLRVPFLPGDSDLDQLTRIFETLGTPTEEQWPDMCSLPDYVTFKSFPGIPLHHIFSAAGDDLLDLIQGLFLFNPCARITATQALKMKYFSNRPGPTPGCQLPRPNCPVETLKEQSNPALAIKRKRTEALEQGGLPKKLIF
T28 sequence (Q15569 whole entry): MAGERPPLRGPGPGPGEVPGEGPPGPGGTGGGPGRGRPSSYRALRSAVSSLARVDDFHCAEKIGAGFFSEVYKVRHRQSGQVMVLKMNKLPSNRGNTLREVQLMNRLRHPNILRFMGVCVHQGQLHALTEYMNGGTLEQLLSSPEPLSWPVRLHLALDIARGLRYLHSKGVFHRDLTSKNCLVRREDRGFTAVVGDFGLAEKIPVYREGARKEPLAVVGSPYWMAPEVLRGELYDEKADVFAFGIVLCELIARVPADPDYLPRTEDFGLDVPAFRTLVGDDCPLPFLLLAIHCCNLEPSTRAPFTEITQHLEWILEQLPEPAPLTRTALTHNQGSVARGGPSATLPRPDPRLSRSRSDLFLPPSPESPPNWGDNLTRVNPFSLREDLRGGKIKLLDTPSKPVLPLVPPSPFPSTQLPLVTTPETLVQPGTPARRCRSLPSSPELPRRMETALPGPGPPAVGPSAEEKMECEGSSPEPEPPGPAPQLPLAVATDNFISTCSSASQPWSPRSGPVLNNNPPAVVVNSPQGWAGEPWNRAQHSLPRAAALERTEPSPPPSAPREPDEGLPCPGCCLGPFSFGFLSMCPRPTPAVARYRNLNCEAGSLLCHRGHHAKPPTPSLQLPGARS
T23 sequence (Q08345 19-913): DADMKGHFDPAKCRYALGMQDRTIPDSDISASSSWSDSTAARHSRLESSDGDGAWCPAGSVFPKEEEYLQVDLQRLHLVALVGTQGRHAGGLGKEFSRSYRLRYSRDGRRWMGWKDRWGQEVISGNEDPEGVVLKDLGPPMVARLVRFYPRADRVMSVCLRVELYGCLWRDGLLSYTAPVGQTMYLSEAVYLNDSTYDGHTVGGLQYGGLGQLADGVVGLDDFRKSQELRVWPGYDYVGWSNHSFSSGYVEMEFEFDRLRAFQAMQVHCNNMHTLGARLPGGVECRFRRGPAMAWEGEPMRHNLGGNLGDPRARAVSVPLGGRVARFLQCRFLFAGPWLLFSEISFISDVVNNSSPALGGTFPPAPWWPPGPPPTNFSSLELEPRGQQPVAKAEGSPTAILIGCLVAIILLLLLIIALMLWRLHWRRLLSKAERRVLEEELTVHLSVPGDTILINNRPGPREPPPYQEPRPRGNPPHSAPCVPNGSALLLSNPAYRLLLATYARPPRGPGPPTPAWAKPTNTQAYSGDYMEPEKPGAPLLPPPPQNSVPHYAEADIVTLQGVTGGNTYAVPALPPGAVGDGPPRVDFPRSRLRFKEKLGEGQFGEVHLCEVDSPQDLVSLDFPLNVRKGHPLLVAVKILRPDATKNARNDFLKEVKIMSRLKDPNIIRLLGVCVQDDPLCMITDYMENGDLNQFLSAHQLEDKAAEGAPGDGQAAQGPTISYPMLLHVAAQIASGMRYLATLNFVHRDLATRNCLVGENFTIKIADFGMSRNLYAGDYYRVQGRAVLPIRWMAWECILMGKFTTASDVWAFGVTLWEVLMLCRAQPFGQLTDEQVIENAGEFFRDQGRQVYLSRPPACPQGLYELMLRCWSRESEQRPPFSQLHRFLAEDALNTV
T24 sequence (P00519 whole entry): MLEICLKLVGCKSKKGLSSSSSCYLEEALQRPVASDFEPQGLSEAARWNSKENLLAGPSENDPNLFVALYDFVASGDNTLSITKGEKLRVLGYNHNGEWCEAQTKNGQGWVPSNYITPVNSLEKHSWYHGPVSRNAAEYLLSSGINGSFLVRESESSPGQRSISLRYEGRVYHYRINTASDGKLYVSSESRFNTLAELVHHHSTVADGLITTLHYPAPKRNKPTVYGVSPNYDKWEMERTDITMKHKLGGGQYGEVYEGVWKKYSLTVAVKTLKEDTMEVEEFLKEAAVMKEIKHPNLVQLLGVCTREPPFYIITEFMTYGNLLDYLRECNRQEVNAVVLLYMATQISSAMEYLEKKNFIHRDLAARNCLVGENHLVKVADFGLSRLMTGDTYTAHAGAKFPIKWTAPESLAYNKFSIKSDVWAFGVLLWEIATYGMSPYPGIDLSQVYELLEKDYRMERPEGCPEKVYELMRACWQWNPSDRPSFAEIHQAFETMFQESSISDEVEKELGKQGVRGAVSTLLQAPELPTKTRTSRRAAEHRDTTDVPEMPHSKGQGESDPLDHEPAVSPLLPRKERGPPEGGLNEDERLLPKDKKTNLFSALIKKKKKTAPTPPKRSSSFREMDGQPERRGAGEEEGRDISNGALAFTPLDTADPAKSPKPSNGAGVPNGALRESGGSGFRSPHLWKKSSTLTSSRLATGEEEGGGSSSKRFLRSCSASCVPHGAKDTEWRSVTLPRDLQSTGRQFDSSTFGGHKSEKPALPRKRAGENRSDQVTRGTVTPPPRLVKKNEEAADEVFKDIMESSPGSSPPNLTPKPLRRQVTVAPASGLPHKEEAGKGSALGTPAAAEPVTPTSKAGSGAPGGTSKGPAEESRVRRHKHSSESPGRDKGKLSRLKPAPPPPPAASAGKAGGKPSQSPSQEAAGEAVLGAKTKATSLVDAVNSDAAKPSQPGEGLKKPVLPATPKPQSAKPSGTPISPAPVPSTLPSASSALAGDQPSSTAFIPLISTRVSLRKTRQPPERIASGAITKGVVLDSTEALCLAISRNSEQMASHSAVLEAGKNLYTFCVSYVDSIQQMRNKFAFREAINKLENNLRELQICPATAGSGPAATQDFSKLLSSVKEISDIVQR
T3 sequence (P49840 whole entry): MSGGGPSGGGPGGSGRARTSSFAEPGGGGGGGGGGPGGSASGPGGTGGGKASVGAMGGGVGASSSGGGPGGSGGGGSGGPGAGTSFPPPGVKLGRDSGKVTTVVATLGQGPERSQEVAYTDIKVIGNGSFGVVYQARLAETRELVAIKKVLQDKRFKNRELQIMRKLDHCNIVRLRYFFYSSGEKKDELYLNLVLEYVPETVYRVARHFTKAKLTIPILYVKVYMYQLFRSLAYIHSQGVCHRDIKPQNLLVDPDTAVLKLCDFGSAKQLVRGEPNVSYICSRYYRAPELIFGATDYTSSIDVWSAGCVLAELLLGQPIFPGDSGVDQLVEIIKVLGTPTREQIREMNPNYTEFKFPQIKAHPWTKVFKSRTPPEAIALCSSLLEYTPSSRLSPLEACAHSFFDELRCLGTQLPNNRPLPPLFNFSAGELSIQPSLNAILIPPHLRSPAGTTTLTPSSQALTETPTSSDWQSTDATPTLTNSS

remaining binding at 2 µM [1]: 100% | % Activity Remaining [2]: 100.0% | remaining binding at 2 µM [3]: 90% | remaining binding at 2 µM [4]: 100% | remaining binding at 2 µM [5]: 95.5% | remaining binding at 2 µM [6]: 95.5% | remaining binding at 2 µM [7]: 99.5% | remaining binding at 2 µM [8]: 100% | remaining binding at 2 µM [9]: 99.7% | remaining binding at 2 µM [10]: 100% | remaining binding at 2 µM [11]: 100% | remaining binding at 2 µM [12]: 92.8% | remaining binding at 2 µM [13]: 98.9% | remaining binding at 2 µM [14]: 80.5% | remaining binding at 2 µM [15]: 100% | remaining binding at 2 µM [16]: 88.4% | remaining binding at 2 µM [17]: 92.3% | remaining binding at 2 µM [18]: 73.2% | remaining binding at 2 µM [19]: 76.6% | remaining binding at 2 µM [20]: 92.8% | remaining binding at 2 µM [21]: 100% | remaining binding at 2 µM [22]: 79.8% | remaining binding at 2 µM [23]: 97.4% | remaining binding at 2 µM [24]: ~42% | remaining binding at 2 µM [25]: 100% | remaining binding at 2 µM [26]: ~41% | remaining binding at 2 µM [27]: 96.4% | remaining binding at 2 µM [28]: 84.6% | remaining binding at 2 µM [29]: 100% | remaining binding at 2 µM [30]: 92.1%
SMILES: C#Cc1cccc(Nc2ncnc3cc(OCCOC)c(NC(=O)c4ccc(F)c([N+](=O)[O-])c4)cc23)c1 [Reno647, 4-Fluoro-N-[4-(3-ethynyl-phenylamino)-7-(2-methoxy-ethoxy)-quinazolin-6-yl]-3-nitro-benzamide]
